Measured values from patent publication US6506885B1, “Monoclonal antibodies to the drug tilmicosin and a method for detecting the same” (The United States of America as represented by the …, priority 2001, dated 2003).

Legend:
[1] = bovine lung tissue; after serum levels dropped below therapeutic concentrations; cited from earlier work
[2] = test system: monoclonal antibody 9-7-7; experiment: competitive indirect ELISA (ciELISA) on (XII) coated plates, antibody 9-7-7; assay type: binding
Description: (§1) The supernatant culture fluid from the cloned hybridomas also may be screened to select for those producing antibodies having a high affinity for tilmicosin. Affinity may be measured using solid phase immunoassays such as ELISA, RIA, or equilibrium dialysis using labeled tilmicosin. In the preferred embodiment, affinity is measured by competitive indirect ELISA as described in the Examples, and is conducted at a final antibody concentration (dilution from the tissue culture supernatant) to give 50% of maximal binding to a tilmicosin- or 23-deoxo-23-demycinosyl tilmicosin-carrier complex coated substrate or assay well (i.e., the concentration of the antibody that results in 50% of the plateau activity in direct binding ELISA). […] Following incubation and washing, bound antibody in the wells is determined in the same manner as the db-ELISA. Percent inhibition may be calculated as (1−B/Bo)×100, where B is the optical density (OD) of a well with a competitor and Bo is the mean OD of the wells without competitor (control). […]
(§2) The cells which were positive in the initial screening and expanded were analyzed by competitive indirect ELISA (ciELISA) below for inhibition of antibody binding in the presence of free (unconjugated) tilmicosin on (XII) coated antigen plates. […]

[3] = test system: monoclonal antibody 37-2-6; experiment: competitive indirect ELISA (ciELISA) on (XII) coated plates, antibody 37-2-6; assay type: binding
Description: as §1, §2

[4] = test system: monoclonal antibody 9-5-3; experiment: competitive indirect ELISA (ciELISA) on (XII) coated plates, antibody 9-5-3; assay type: binding
Description: as §1, §2

[5] = test system: monoclonal antibody 47-1-1; experiment: competitive indirect ELISA (ciELISA) on (XII) coated plates, antibody 47-1-1; assay type: binding
Description: as §1, §2

[6] = test system: monoclonal antibody 9-1-4 (Til-5); experiment: competitive indirect ELISA (ciELISA) on (XII) coated plates, antibody 9-1-4; assay type: binding
Description: as §1, §2

[7] = test system: monoclonal antibody 37-4-5 (Til-1); experiment: competitive indirect ELISA (ciELISA) on (XII) coated plates, antibody 37-4-5; assay type: binding
Description: as §1, §2

[8] = (IC50 of Tilmicosin)/(IC50 of other Compound) X100, — = no cross-reactivity observed

| IC50, pmol/well ([2]; free compound as competitor) [pmol/well] | IC50, pmol/well ([3]; free compound as competitor) [pmol/well] | IC50, pmol/well ([4]; free compound as competitor) [pmol/well] | IC50, pmol/well ([5]; free compound as competitor) [pmol/well] | IC50, pmol/well ([6]; free compound as competitor) [pmol/well] | IC50, pmol/well ([7]; free compound as competitor) [pmol/well] | Compound | time lung concentrations exceed the P. haemolytica MIC after dosage [1] | % Competition (percentage of cross-reactivity) [2, 8] [%] | % Competition (percentage of cross-reactivity) [3, 8] [%] | % Competition (percentage of cross-reactivity) [4, 8] [%] | % Competition (percentage of cross-reactivity) [5, 8] [%] | % Competition (percentage of cross-reactivity) [6, 8] [%] | % Competition (percentage of cross-reactivity) [7, 8] [%] |
| --- | --- | --- | --- | --- | --- | --- | --- | --- | --- | --- | --- | --- | --- |
| – | – | – | – | – | – | CCC1OC(=O)CC(O)C(C)C(OC2OC(C)C(O)C(N(C)C)C2O)C(CCN2CC(C)CC(C)C2)CC(C)C(=O)C=CC(C)=CC1COC1OC(C)C(O)C(OC)C1OC (stereo not shown) [Tilmicosin] | at least 72 hours | – | – | – | – | – | – |
| 40.6 | 44.2 | 35.3 | 44.2 | 41.5 | 61.8 | CC1CNCC(C)C1 (stereo not shown) [3,5-dimethyl piperidine] | – | 26 | 24 | 72 | 17 | 18 | 19 |
